Measured values published in ChEMBL document CHEMBL1201862, “PubChem BioAssay data set” (2004).
Calls of active or inactive are those of the source.

Tests used:
[1] = molecular target: FAD-linked sulfhydryl oxidase ALR (Homo sapiens, UniProt P55789); test: inhibitors of human ALR sulfhydryl oxidase, dose response, biochemical, H2O2 detection, luminescence, cherry-pick (AID 493248)
[2] = Luminescence Cell-Based Dose Response HTS to Identify Activators of Luciferase Translation or Activity in H4 […] Cells. [Related pubchem assays: 1829 (Project Summary), 1814 (Primary HTS)]; format: functional
H4 = test: Luminescence Cell-Based Dose Response HTS to Identify Activators of 5'UTR Stem-Loop Driven Prion Protein mRNA Translation in H4 Neuroglioblastoma Cells. [Related pubchem assays: 1829 (Project Summary), 1814 (Primary HTS)]; format: functional; conditions: Homo sapiens
[3] = Luminescence Cell-Based Dose Confirmation HTS to Identify Activators of 5'UTR Stem-Loop Driven Alpha-Synuclein mRNA Translation in H4 Neuroglioblastoma Cells. [Related pubchem assays: 1829 (Project Summary), 1814 (Primary HTS)]; format: functional
[4] = molecular target: Glyceraldehyde-3-phosphate dehydrogenase (Homo sapiens, UniProt P04406)
[5] = growth suppression of PTEN-null colon cells, dose response, cell-based, HCT116 PTEN knockout (AID 1047); format: functional;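 note: HCT116 colon tumor cells with PTEN knocked out; cells exposed to compound for 60 hours before readout; potency for loss of cell viability measured by luminescence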
[6] = growth suppression of beta-catenin-knockout colon cells, dose response, cell-based, HCT116, human colon tumor (AID 1045); format: functional;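 note: HCT116 colon tumor cells with beta catenin knocked out; cells exposed to compound for 60 hours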
[7] = microbe, parasite or virus in culture; format: functional; conditions: Mycobacterium tuberculosis
cells = format: functional
P388/ADR = test: cells; format: functional; conditions: Mus musculus
P388 = test: cells; format: functional; conditions: Mus musculus
SN12K1 = test: cells; format: functional; conditions: Homo sapiens
[8] = molecular target: T1, Carboxy-terminal domain RNA polymerase II polypeptide A small phosphatase 1 (Homo sapiens, UniProt Q9GZU7); test: inhibitors of CTDSP1, concentration-response testing, biochemical assay, absorbance-based, actives from ultra-high-throughput screening (AID 540297); format: functional
T1 sequence (Q9GZU7 whole entry): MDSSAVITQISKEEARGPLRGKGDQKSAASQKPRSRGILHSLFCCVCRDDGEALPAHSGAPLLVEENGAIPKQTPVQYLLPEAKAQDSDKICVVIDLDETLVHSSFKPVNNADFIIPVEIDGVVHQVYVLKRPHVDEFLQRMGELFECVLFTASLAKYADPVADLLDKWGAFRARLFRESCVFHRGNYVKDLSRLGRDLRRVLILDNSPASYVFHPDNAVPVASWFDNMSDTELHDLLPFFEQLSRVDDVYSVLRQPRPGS

Sequence of FAD-linked sulfhydryl oxidase ALR (P55789 whole entry): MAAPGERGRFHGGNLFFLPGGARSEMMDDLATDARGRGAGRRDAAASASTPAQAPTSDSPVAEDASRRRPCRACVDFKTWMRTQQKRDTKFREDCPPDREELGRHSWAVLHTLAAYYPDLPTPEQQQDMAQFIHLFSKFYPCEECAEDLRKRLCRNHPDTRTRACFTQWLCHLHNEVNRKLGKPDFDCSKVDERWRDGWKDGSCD
Sequence of Glyceraldehyde-3-phosphate dehydrogenase (P04406 whole entry): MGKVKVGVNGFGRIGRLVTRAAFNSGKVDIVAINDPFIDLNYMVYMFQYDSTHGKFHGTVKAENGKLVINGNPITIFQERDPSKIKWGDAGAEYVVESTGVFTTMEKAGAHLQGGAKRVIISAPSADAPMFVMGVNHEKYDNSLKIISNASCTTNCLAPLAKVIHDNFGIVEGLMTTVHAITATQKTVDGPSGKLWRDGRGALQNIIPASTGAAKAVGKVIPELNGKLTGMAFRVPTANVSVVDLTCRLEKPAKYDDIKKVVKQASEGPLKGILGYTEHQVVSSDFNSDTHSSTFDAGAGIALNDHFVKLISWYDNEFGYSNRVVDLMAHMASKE

Q: With CC1CCCC(C)N1c1nnc(N)s1 (configuration not stated) as the molecule, how does the AC50 [1] read?
A: 2.31 µM (active)

Q: For O=c1cc(N2CCN(c3ccc(F)cc3)CC2)[nH]c(=O)n1C1CCCCC1, which EC50 [2] is on record?
A: 17.3 µM (inconclusive)

Q: And the EC50 (H4)?
A: 26.6 µM (active)

Q: And the EC50 [3]?
A: > 120 µM (not active)

Q: Which AC50 [1] does the source give for O=S(=O)(Nc1ccc2c(c1)OCO2)c1ccc(F)c(F)c1 here?
A: 5.12 µM (active)

Q: With COc1cccc(NCc2cc(=O)oc3cc(-c4ccccc4)c(O)cc23)c1 as the molecule, how does the EC50 [2] read?
A: 15.2 µM (active)

Q: What about the EC50 (H4) of the same molecule?
A: 20 µM (active)

Q: And the EC50 [3]?
A: 21.8 µM (active)

Q: Which IC50 [4] does the source give for CN1CCN(C2=C(Cl)C(=O)N(c3ccc(C(F)(F)F)cc3)C2=O)CC1 here?
A: > 50 µM (inconclusive)

Q: Which results are given for N#Cc1ccc(-c2ccc(F)cc2)nc1Oc1ccc(Cl)c(Cl)c1?
A: EC50 [5]: 7.18 µM (active); EC50 [6]: 3.8 µM (active)

Q: With COc1ccc(CCNC(=O)c2cc(-c3cc(C)ccc3O)n[nH]2)cc1OC as the molecule, how does the AC50 [1] read?
A: 85.6 µM (active)

Q: With C=C(C)CSc1cc(C)c(C#N)c2nc3ccccc3n12 as the molecule, how does the CC50 [7] read?
A: 10.1 µM (active)

Q: Which EC50 [5] does the source give for O=C1/C(=C/c2c[nH]c3ccccc23)CCC/C1=C\c1c[nH]c2ccccc12 here?
A: 14.4 µM (active)

Q: And the EC50 [6]?
A: 16.8 µM (active)

Q: For CCOC(=O)c1cc(-c2c(Cl)cccc2Cl)no1, which IC50 (cells) is on record?
A: 23 µM (active)

Q: For O=C(NNCc1ccc(O)cc1)c1ccccc1Cl, which AC50 [1] is on record?
A: 0.695 µM (active)

Q: Which GI50 (P388/ADR) does the source give for CCCCN(C)/N=N/c1[nH]cnc1C(N)=O here?
A: > 100 µM (inactive)

Q: What about the GI50 (P388) of the same molecule?
A: 63.8 µM (inactive)

Q: And the GI50 (SN12K1)?
A: 81.7 µM (inactive)

Q: What does the source list for O=C(N/N=C/c1ccc(Cl)cc1)c1cc2c(s1)-c1ccccc1CC2?
A: EC50 [5]: 9.47 µM (active); EC50 [6]: 10.5 µM (active); IC50 [8]: 20 µM (active)

Q: With O=[N+]([O-])c1c(O)oc2ccccc2/c1=N\c1ccccc1O as the molecule, how does the IC50 (cells) read?
A: 7.4 µM (active)

Q: With O=S1(=O)N=C(N/N=C/C=C/c2ccccc2)c2ccccc21 as the molecule, how does the IC50 (cells) read?
A: 30.6 µM (active)

Q: With O=C(NNC(=O)c1ccc(-c2ccccc2)cc1)c1ccccc1 as the molecule, how does the IC50 [8] read?
A: 11.2 µM (active)

Q: With O=C1/C(=C\c2ccncc2)CCc2ccccc21 as the molecule, how does the CC50 [7] read?
A: > 40 µM (active)
